Assay results published in PMC5618418, “Pharmacokinetics of Jaspine B and Enhancement of Intestinal Absorption of Jaspine B in the Presence of Bile Acid in Rats” (Marine Drugs, 2017).
Read-outs that look alike come from different tables or passages of the source.

What was measured:
[1] = Stability of QC samples in plasma; parameters: species or system rat
Procedure: For the analytical validation of Jaspine B in plasma samples, the standard curve range was 25–5000 ng/mL and the concentrations of quality control (QC) samples were 75, 500, and 3000 ng/mL. The recovery of these spiked QC sample were in the range of 88.2–98.1%. Intra- and inter-day precision and accuracy had coefficients of variance of less than 10%. The stability of Jaspine B QC samples after 3 freeze thaw cycles were 83.9–94.4% and the short-term stability of these samples after standing for 6 h at room temperature was 94.3–100.1%.

[2] = Pharmacokinetics after intravenous injection (plasma, bile, urine); type: in vivo, rat; details: for half-life: iv, 10 mg/kg
Procedure: Male SD rats (aged 8–9 weeks, weighing 250–300 g) were obtained from Samtako Bio Korea, Inc. (Osan, Korea). The rats were acclimatized for 1 week in a temperature-controlled room (23 ± 2 °C) with a 12-h illumination cycle. Food and water were given ad libitum. All animal procedures were approved by the Animal Care and Use Committee of the Kyungpook National University (No. 2015-0064). The rats were fasted for at least 12 h before the oral administration of drugs.
The femoral artery, femoral vein, and bile duct were cannulated with polyethylene tubes (PE-50 and PE-10; Jungdo, Seoul, Korea) under light anesthesia with isoflurane.
For intravenous (IV) dosing, Jaspine B was dissolved in a vehicle containing DMSO: PEG400: saline (2:4:4, v/v/v) and was IV-injected via the femoral vein at 10 mg/kg (vehicle volume, 1 mL/kg). Blood samples were collected from the femoral artery at 0, 0.083, 0.167, 0.25, 0.5, 1, 2, 4, 6, 8, and 12 h following the IV administration of Jaspine B. Bile and urine samples were collected every 2 h for a total of 12 h. After centrifugation of blood samples at 13,200 rpm for 10 min, aliquots of 50 μL of plasma, bile, and urine were stored at −80 °C until the analysis of Jaspine B.
Aliquots (50 μL) of plasma, bile, feces homogenates, and urine samples were added to 250 μL of acetonitrile containing 0.5 ng/mL of berberine (an internal standard). After vortexing for 10 min and centrifugation at 13,200 rpm for 5 min, an aliquot (2 μL) of the supernatant was injected directly into the LC-MS/MS system. For the analysis of plasma concentration, the standard curve range was 25–5000 ng/mL and the concentrations of quality control (QC) samples were 75, 500, and 3000 ng/mL, as described previously. Concentrations of Jaspine B in urine, bile, and feces homogenates were 5–300 ng/mL, 20–5000 ng/mL, and 20–5000 ng/mL, respectively. The concentrations of QC samples were 15, 100, and 300 ng/mL for urine samples and 75, 500, and 3000 ng/mL for bile and feces homogenates.
Pharmacokinetic parameters were determined using a non-compartmental analysis (WinNonlin® 2.0; Pharsight, Mountain View, CA, USA). Maximum plasma concentration (Cmax) and time to reach Cmax (Tmax) values were obtained from plasma concentration-time curves. The area under the plasma concentration–time curve from zero to infinity (AUC) was calculated using the trapezoidal-extrapolation method. For extrapolation, the area from the last data point to infinity was estimated by dividing the […].
Total systemic clearance (CLtotal) was calculated by dividing IV dose by plasma AUC and the apparent volume of distribution at steady-state (Vss) was calculated by multiplying mean residence time (MRT) by CLtotal.

SK-OV3 = tested on: SK-OV3; parameters: method as in doi:10.5352/JLS.2016.26.12.1392; details: SK-OV3 ovarian; cited from earlier work
MDA-MB-231 = tested on: MDA-MB-231; parameters: method as in doi:10.5352/JLS.2016.26.12.1392; details: MDA-MB-231 human breast adenocarcinoma; cited from earlier work
786-O = tested on: 786-O; parameters: method as in doi:10.5352/JLS.2016.26.12.1392; details: 786-O renal carcinoma; cited from earlier work
[3] = tested on: metastatic melanoma cell growth in the lungs; parameters: method as in PMID 22451302; details: mice, intravenous (equivalent to 6.7 mg/kg) on 4th, 8th, 12th day, read on day 14; cited from earlier work
[4] = male, Sprague-Dawley, rat plasma, IV 10 mg/kg

- stability after 3 freeze thaw cycles ([1]; plasma QC samples 75, 500, 3000 ng/mL): 83.9–94.4%
- short-term stability ([1]; plasma QC samples, 6 h at room temperature): 94.3–100.1%
- clearance ([2]; male, Sprague-Dawley, plasma, rat, IV 10 mg/kg, read-out: CLtotal): 98.3 ± 7.7 mL/min/kg
- Vd ([2]; male, Sprague-Dawley, plasma, rat, IV 10 mg/kg, read-out: Vss): 21.2 ± 2.6 L/kg
- half-life ([2]; male, Sprague-Dawley, rat, plasma, rat plasma, distribution phase, read-out: distribution half-life (converted)): 1.4 h
- half-life ([2]; male, Sprague-Dawley, rat, plasma, rat plasma, read-out: T1/2 (terminal half-life) (converted)): 6.7 ± 1.6 h
- AUC(0-inf) [2, 4]: 1700 ± 137 ng·h/mL
- MRT [2, 4]: 3.6 ± 0.5 h
- AUC(0-t) ([2]; male, Sprague-Dawley, rat plasma, IV 10 mg/kg, read-out: AUC12h): 1290 ± 166 ng·h/mL
- Xbile ([2]; rat bile, IV 10 mg/kg, 0-12 h): 2.4 ± 0.8 % of dose
- Xurine ([2]; rat urine, IV 10 mg/kg, 0-12 h): 0.4 ± 0.2 % of dose
- CLbile ([2]; rat, IV 10 mg/kg): 3.1 ± 0.6 mL/min/kg
- CLurine ([2]; rat, IV 10 mg/kg): 0.5 ± 0.3 mL/min/kg
- contribution of CLbile and CLurine to CLtotal ([2]; rat, IV 10 mg/kg): about 4%
Structure (SMILES): CCCCCCCCCCCCCC[C@@H]1OC[C@H](N)[C@@H]1O [Jaspine B]
- IC50 (SK-OV3): 4.78 µM
- IC50 (MDA-MB-231): > 100 µM
- IC50 (786-O): 29.4 µM
- metastatic melanoma cell growth in the lungs [3]: dramatically decreased
